For assay [1], the system named is Apple plants cv. “Weirouge”. In words: Eriodictyol and luteoliflavan content in young apple leaves after treatment (HPLC). Format: in vivo. The note with it: for Eriodictyol / Luteoliflavan: 250 ppm to runoff, youngest fully developed leaf. Here is the method:
Apple plants cv. “Weirouge” were grown under controlled-environment conditions and treated to runoff point with 250 ppm prohexadione-calcium (formulated as BAS 125 10 W=wettable granules, content 10%). At various points in time after the treatment, the youngest fully developed leaf was harvested from each individual shoot. The freeze-dried leaves which had been ground using a pestle and mortar were extracted with methanol. Flavonoids and related compounds in the concentrated extract were analyzed by HPLC. Separation was performed on Hypersil ODS (particle size 3 μm) on a 250×4 mm column. Elution was carried out at a flow rate of 0.5 ml per minute, and mixtures of formic acid (5% in water) and methanol, increased stepwise from a ratio of 95:5 to 10:90 (v/v) were used. Phenolic acids and flavonols were detected at 280 nm. Flavan-3-ols were determined by post-column derivatization with p-dimethylaminocinnamaldehyde at 640 nm. For methodological details, see Treutter et al. (1994), Journal of Chromatography A 667, 290-297.

The test system of assay [2] is Vines cv. “Dornfelder”. In words: Treatment of Dornfelder vines: ripeness, acid, pigmentation and taste of harvested grapes. Type of assay: in vivo, grapevine. The protocol:
Vines cv. “Dornfelder” were treated twice at different points in time with the formulation BAS 125 10W, which contains prohexadione-calcium. 1000 g of prohexadione-calcium in 1000 l of spray mixture were applied per ha per treatment.
The 1st application was carried out at developmental stage 73 before the berries developed their color, and the 2nd application 10 days thereafter.
Untreated control: 69° Oechsle, acid: 7.3 g/l; treated control: 67° Oechsle, acid: 7.4 g/l.

Assay [3] has as its system apple tissue cultures. The note with it: cited from earlier work.
In assay [4] the test system is shoot tissue of apples. The note with it: shoot tissue of apples after exposure; cited from earlier work.
Setting [5] is: two applications of 1000 g/ha in 1000 l spray mixture (BAS 125 10W), at harvest.

In assay [1] (12 days after treatment), prohexadione-calcium showed an Eriodictyol of 17 g/kg dry matter and a Luteoliflavan of 0 g/kg dry matter. Moreover, in assay [1] (21 days after treatment), the Eriodictyol turned out to be 27 g/kg dry matter and the Luteoliflavan was found to be 34 g/kg dry matter. In assay [1] (after 12 and 21 days), the “eriodictyol concentration in treated leaves” value is “markedly increased”. In assay [2] (compared with untreated grapes), the “pigmentation of treated grapes” value is on record as “less pronounced” and the “taste of treated grapes” value is “no difference was observed”. Moreover, in assay [2] (setting [5]), the “acid of harvested grapes” value is 7.4 g/L and the “degree of ripeness of harvested grapes” value stood at 67 ° Oechsle. Further, in assay [3], the “content of phenolic substances” value is given as “increased several times”. In assay [4], the “catechin and cyanidin in treated tissue” value is on record as “not detectable in the treated tissue, or found in considerably reduced amounts only”; the “luteoliflavan and eriodictyol amounts” value is given as “relatively large amounts”.

The values are drawn from patent US8105980B1, “Method of increasing the content of flavonoids and phenolic substances substances inplants” (Basf Aktiengesellschaft, priority 1999, dated 2012).
